Results on 1 compound are retold here after patent publication US20230321033A1, “THIOPHEN COMPOUNDS FOR USE IN THE TREATMENT OF RENAL FIBROSIS” (ENYO PHARMA, priority 2020, published 2023).

Structures are written as SMILES. Entries after “also recorded” stand apart in the source; their conditions may differ.

In test [1] the test system is kidneys of NASH mice (AMLN diet). Put plainly: Renal fibrosis in NASH mouse model, picrosirius red (PSR) staining of kidneys. Type of test: in vivo. The note with it: mice on AMLN diet 30 weeks, then PO treatment 8 weeks twice a day, 7 or 20 mg/kg; kidneys at sacrifice. As for the experimental part:
(§1) Compound #157 was evaluated in a mouse model of NASH. Mice were fed with an AMLN diet (high in fat (40%), fructose (22%) and cholesterol (2%)) for 30 weeks prior treatment with Compound #157 for 8 weeks twice a day at a dose of 7 or 20 mg/kg.
(§2) The livers and kidneys were collected at sacrifice. Fibrosis, in particular tubulointerstitial fibrosis, has been evaluated by quantification of the picrosirius red (PSR) staining positive areas. Inflammation has been quantified on CD3 stained sections.

Test [2] has the same test system. Put plainly: Renal inflammation in NASH mouse model, CD3 stained kidney sections. The format is in vivo. The note with it: mice on AMLN diet 30 weeks, then PO treatment 8 weeks twice a day, 7 or 20 mg/kg; kidneys at sacrifice. As for the experimental part: as §1, §2

Turning to `O=C(Nc1scc(C2CCc3ccccc3C2)c1C(=O)O)c1ccccc1` (stereo not drawn) [Compound #157], the “renal fibrosis (tubulointerstitial), quantification of picrosirius red (PSR) staining positive areas” value in test [1] is on record as “completely resolve fibrosis; also recorded: significantly decreases renal fibrosis”. Also, in test [2], the “decrease of renal inflammation (CD3 stained sections)” value was 50% and the “renal inflammation (lymphocytes infiltration), quantified on CD3 stained sections” value is listed as “attenuate significantly inflammation; also recorded: significantly decreases renal inflammation”.
